These results are taken from patent US20230219957A1, “SMALL MOLECULE CB002-ANALOGES RESTORE THE P53 PATHWAY AND TARGET S-PHASE CHECKPOINT” (Brown University, priority 2020, published 2023).

Assay [1] has as its system SW480 colon cancer cells. The experiment in a line: Immunoblot of cell cycle markers. Type of assay: cell-based, human. The following applies: synchronized SW480. The protocol:
Immunoblotting (additional method). After treatment, floating cells were collected, and adherent cells were trypsinized, washed with phosphate-buffered saline, and lysed with RIPA buffer (Sigma-Aldrich, St. Louis, Mo., USA) for thirty minutes to one hour at 4° C. Protein lysates were pelleted. The supernatant was collected. Total protein per sample was determined using a Pierce™ BCA Protein Assay Kit (Thermo Fisher Scientific, Waltham, Mass., USA). Proteins were denatured using 1× NuPAGE® LDS sample buffer (Thermo Fisher Scientific, Waltham, Mass., USA) and reduced with 2-mercaptoethanol (Sigma-Aldrich, St. Louis, Mo., USA). Protein lysates were boiled for fifteen min at 95° C. After protein normalization, samples were loaded into NuPAGE™ Novex™ 4-12% Bis-Tris Protein Gels (Thermo Fisher Scientific, Waltham, Mass., USA). Gel electrophoresis was performed with NuPAGE™ MES SDS Running Buffer. Proteins were transferred onto an Immobilon-P membrane (PVDF, EMD Millipore, Taunton, Mass., USA) using a Bio-Rad system with a 10% Tris-Glycine and 10% methanol transfer buffer diluted in distilled and deionized water. Membranes were blocked with 10% milk in Tris-buffered saline with Tween 20 (TBST) solution. The membranes were incubated overnight with the primary antibody, washed with TBST, and incubated with secondary antibody for one hour. Primary antibody incubations were performed in 5% milk or 5% bovine serum albumin in TBST solution as per manufacturer instructions. Signal was detected using a chemiluminescent detection kit, followed by autoradiography. The following antibodies were used: p53 (1:1000, #sc-126, Santa Cruz Biotechnology, Santa Cruz, Calif., USA), p73 (1:1000, #A300-126A, Bethyl Laboratories), Noxa (1:250, #OP180, EMD Millipore, Taunton, Mass., USA), DR5 (#3696), cleaved PARP (#9546), phospho-RPA32/RPA2 (#54762), p-cdc2 (#9111), p-cdc25c, pH3 (#3377) (1:1,000; Cell Signaling Technology, Inc., Danvers, Mass. USA) and β-actin (1:10000, A5441, Sigma).
(§1) Cell synchronization. Synchronized cells were synchronized by double thymidine block. Cells were treated with […] thymidine for sixteen hours. The drug was removed and replaced by complete growth media for eight hours. Cells were treated for the second time with […] thymidine for sixteen hours. At this point, cells were treated and harvested.
Background: In western blotting, separated proteins are transferred to a membrane and probed.

Assay [2] concerns SW480 colon cancer cells. The experiment in a line: Propidium iodide / BrdU cell cycle analysis of synchronized cells. Format: cell-based, human. The following applies: all time points, versus DMSO vehicle control. The procedure: as §1
Propidium iodide and BrdU flow cytometry assay. Cells were seeded at a density of 5×10^5 in a 6-well plate and treated for forty-eight to seventy-two hours. After treatment, floating cells were collected, and adherent cells were trypsinized, pelleted, washed with phosphate-buffered saline, and fixed in 70% ethanol overnight. For propidium iodide (PI) based Sub-G1 apoptosis analysis, cells were spun down after fixation and resuspended in phosphate-citric acid buffer (0.2M Na2HPO4+0.1M Citric Acid, pH 7.8) at room temperature for five minutes. The cell pellet was resuspended for staining with 50 μg/mL PI and 250 μg/mL ribonuclease (RNase A). For BrdU analysis, after cell fixation, cells were spun down and resuspended in one mL of 2N HCL with 0.5% Triton X-100 for thirty minutes at room temperature. Cells were pelleted, washed with phosphate-buffered saline, and resuspended in 20 μL BrdU antibody (BD Biosciences, cat no. 347580) diluted in 0.5% Tween 20/PBS/5% bovine serum albumin for thirty minutes at room temperature. Cells were then spun down and resuspended in 140 μg/mL goat-anti mouse Alexa Fluor 488 (#A-11008, Thermo Fisher Scientific, Waltham, Mass., USA) in 0.5% Tween 20 in phosphate-buffered saline/5% bovine serum albumin for thirty minutes at room temperature. Cells were then spun down and resuspended in 5 μg/mL PI: 250 μg/mL RNase A solution. Samples were analyzed on an Epics Elite Epics flow cytometer (Coulter-Beckman).
BrdU analysis gating. Cell aggregates were gated out in the PI Peak vs DNA PI histogram. BrdU lower limit intensity was set on the upper limit of the negative control. The no BrdU antibody assays and no goat-anti mouse Alexa Fluor 488 antibody assays were the negative controls. […] Gating was held constant throughout the samples within a given assay.

With `Cn1c(=O)c2c(ncn2C)n(C)c1=O` [caffeine, reference compound], the “pcdc2(Tyr15) and pcdc25c(Ser16) expression” value with SW480 colon cancer cells [1] (combination with etoposide) is “decreased expression”. Besides, the S-phase population entry in the assay on SW480 colon cancer cells [2] is on record as “comparable to the dimethyl sulfoxide vehicle control”.
`COc1cc([C@@H]2c3cc4c(cc3[C@@H](O[C@@H]3O[C@@H]5CO[C@@H](C)O[C@H]5[C@H](O)[C@H]3O)[C@H]3COC(=O)[C@H]23)OCO4)cc(OC)c1O` [etoposide, reference compound]: the “pcdc2(Tyr15) and pcdc25c(Ser16) protein expression” value in the assay with SW480 colon cancer cells [1] (single agent) is “enhances protein expression”.
